# Source: PubChem BioAssay AID328 (DTP/NCI, 2004)
# Values joined by “and” are separate entries in the source; they are usually repeats but may differ in a detail not shown here. Identical values can stand only once. Toxic doses and inconclusive results are not listed.
# System: BDF1 mice, P388 leukemia ip, median survival T/C
# Assay: NCI In Vivo Anticancer Drug Screen. Data for tumor model P388 Leukemia (intraperitoneal) in B6D2F1 (BDF1) mice
# Conditions: endpoint: median survival time, higher = longer survival
# Procedure, shortened: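 Vehicle-dosed animals serve as the reference; survival of compound-dosed, tumour-implanted mice is divided by it.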
# [1] = dose: 150.0 mg/kg/injection, schedule: Q01DX009 (ip), vehicle: saline with Tween-80
# [2] = dose: 50.0 mg/kg/injection, schedule: Q04DX003 (ip), vehicle: saline
# [3] = dose: 50.0 mg/kg/injection, schedule: Q01DX009 (ip), vehicle: saline with Tween-80
# [4] = dose: 100.0 mg/kg/injection, schedule: Q01DX009 (ip), vehicle: saline with Tween-80
# [5] = dose: 200.0 mg/kg/injection, schedule: Q04DX003 (ip), vehicle: saline with Tween-80
# [6] = dose: 200.0 mg/kg/injection, schedule: Q01DX009 (ip), vehicle: saline with Tween-80
# [7] = dose: 400.0 mg/kg/injection, schedule: Q01DX009 (ip), vehicle: saline with Tween-80
# [8] = dose: 12.5 mg/kg/injection, schedule: Q04DX003 (ip), vehicle: saline
# [9] = dose: 50.0 mg/kg/injection, schedule: Q01DX009 (ip), vehicle: other
# [10] = dose: 100.0 mg/kg/injection, schedule: Q01DX009 (ip), vehicle: other
# [11] = dose: 200.0 mg/kg/injection, schedule: Q01DX009 (ip), vehicle: other
smiles,measurement,setting,value
S=c1nc[nH]c2c1ccc1[nH]cnc12,T/C,"dose: 12.5 mg/kg/injection, schedule: Q01DX005 (ip), vehicle: saline with Tween-80",99 % of control
same,T/C,"dose: 25.0 mg/kg/injection, schedule: Q01DX005 (ip), vehicle: saline with Tween-80",100 % of control
same,T/C,"dose: 50.0 mg/kg/injection, schedule: Q01DX005 (ip), vehicle: saline with Tween-80",99 % of control and 107 % of control
same,T/C,"dose: 100.0 mg/kg/injection, schedule: Q01DX005 (ip), vehicle: saline with Tween-80",90 % of control
same,T/C,"dose: 200.0 mg/kg/injection, schedule: Q01DX005 (ip), vehicle: saline with Tween-80",104 % of control
O=C(O)c1ccccc1C(=O)OC1=CS(=O)(=O)CC1,T/C,"dose: 50.0 mg/kg/injection, schedule: Q01DX001 (ip), vehicle: saline with Tween-80",93 % of control
same,T/C,"dose: 100.0 mg/kg/injection, schedule: Q01DX001 (ip), vehicle: saline with Tween-80",96 % of control
same,T/C,"dose: 200.0 mg/kg/injection, schedule: Q01DX001 (ip), vehicle: saline with Tween-80",97 % of control
same,T/C,"dose: 400.0 mg/kg/injection, schedule: Q01DX001 (ip), vehicle: saline with Tween-80",110 % of control
CCCCCCC(=O)/C=C/c1ccc(Cl)c(Cl)c1,T/C,"dose: 75.0 mg/kg/injection, schedule: Q01DX009 (ip), vehicle: saline with Tween-80",106 % of control
same,T/C,[1],98 % of control
same,T/C,"dose: 300.0 mg/kg/injection, schedule: Q01DX009 (ip), vehicle: saline with Tween-80",93 % of control
Cc1ccc(S(=O)(=O)c2ccc(S(=O)(=O)c3ccc(C)cc3)c3c2no[n+]3[O-])cc1,T/C,"dose: 15.0 mg/kg/injection, schedule: Q01DX009 (ip), vehicle: saline with Tween-80",107 % of control
same,T/C,"dose: 30.0 mg/kg/injection, schedule: Q01DX009 (ip), vehicle: saline with Tween-80",112 % of control
same,T/C,"dose: 60.0 mg/kg/injection, schedule: Q01DX009 (ip), vehicle: saline with Tween-80",112 % of control
C[S+](C)CCCNC(=O)c1csc(-c2csc(CCNC(=O)c3ccccc3)n2)n1,T/C,"dose: 8.0 mg/kg/injection, schedule: Q01DX009 (ip), vehicle: saline",90 % of control
same,T/C,"dose: 16.0 mg/kg/injection, schedule: Q01DX009 (ip), vehicle: saline",100 % of control
same,T/C,"dose: 32.0 mg/kg/injection, schedule: Q01DX009 (ip), vehicle: saline",95 % of control
CC[C@](O)(C(=O)O)c1cc2n(c(=O)c1CO)Cc1cc3ccccc3nc1-2,T/C,"dose: 1.0 mg/kg/injection, schedule: Q01DX009 (ip), vehicle: water",112 % of control
same,T/C,"dose: 2.0 mg/kg/injection, schedule: Q01DX009 (ip), vehicle: saline",156 % of control
same,T/C,"dose: 2.0 mg/kg/injection, schedule: Q01DX009 (ip), vehicle: water",150 % of control
same,T/C,"dose: 3.13 mg/kg/injection, schedule: Q04DX002 (ip), vehicle: saline",116 % of control
same,T/C,"dose: 4.0 mg/kg/injection, schedule: Q01DX009 (ip), vehicle: saline",171 % of control
same,T/C,"dose: 12.5 mg/kg/injection, schedule: Q04DX002 (ip), vehicle: saline",161 % of control
same,T/C,"dose: 12.5 mg/kg/injection, schedule: Q04DX009 (ip), vehicle: saline",192 % of control
same,T/C,"dose: 14.4 mg/kg/injection, schedule: Q04DX003 (ip), vehicle: saline",175 % of control
same,T/C,"dose: 18.0 mg/kg/injection, schedule: Q04DX003 (ip), vehicle: saline",175 % of control
same,T/C,"dose: 24.0 mg/kg/injection, schedule: Q04DX003 (ip), vehicle: saline",214 % of control
same,T/C,"dose: 25.0 mg/kg/injection, schedule: Q04DX002 (ip), vehicle: saline",199 % of control
same,T/C,"dose: 25.0 mg/kg/injection, schedule: Q04DX009 (ip), vehicle: saline",192 % of control
same,T/C,"dose: 30.0 mg/kg/injection, schedule: Q04DX003 (ip), vehicle: saline",201 % of control
same,T/C,"dose: 33.0 mg/kg/injection, schedule: Q04DX003 (ip), vehicle: saline",168 % of control
same,T/C,"dose: 40.0 mg/kg/injection, schedule: Q04DX003 (ip), vehicle: saline",224 % of control
same,T/C,"dose: 40.0 mg/kg/injection, schedule: Q04DX003 (ip), vehicle: water",104 % of control
same,T/C,[2],172 % of control
same,T/C,"dose: 66.7 mg/kg/injection, schedule: Q04DX003 (ip), vehicle: saline",90 % of control
same,T/C,"dose: 75.0 mg/kg/injection, schedule: Q04DX003 (ip), vehicle: saline",200 % of control
same,T/C,"dose: 100.0 mg/kg/injection, schedule: Q01DX001 (ip), vehicle: saline",172 % of control
same,T/C,"dose: 150.0 mg/kg/injection, schedule: Q01DX001 (ip), vehicle: saline",43 % of control
same,T/C,"dose: 175.0 mg/kg/injection, schedule: Q01DX001 (ip), vehicle: saline",90 % of control
CCC(CC)N(C)C(C)(C)CO,T/C,"dose: 25.0 mg/kg/injection, schedule: Q01DX009 (ip), vehicle: saline with Tween-80",100 % of control
same,T/C,[3],91 % of control
same,T/C,"dose: 50.0 mg/kg/injection, schedule: Q04DX003 (ip), vehicle: saline sonified",104 % of control
same,T/C,[4],108 % of control
same,T/C,"dose: 100.0 mg/kg/injection, schedule: Q04DX003 (ip), vehicle: saline sonified",104 % of control
same,T/C,"dose: 200.0 mg/kg/injection, schedule: Q04DX003 (ip), vehicle: saline sonified",113 % of control
ClCCN(CCCl)c1ccc2c3c(cccc13)-c1ccccc1-2,T/C,"dose: 66.0 mg/kg/injection, schedule: Q01DX009 (ip), vehicle: saline with Tween-80",151 % of control
same,T/C,[4],177 % of control
same,T/C,"dose: 132.0 mg/kg/injection, schedule: Q04DX003 (ip), vehicle: saline with Tween-80",160 % of control
same,T/C,[1],214 % of control
same,T/C,[5],182 % of control
same,T/C,"dose: 300.0 mg/kg/injection, schedule: Q04DX003 (ip), vehicle: saline with Tween-80",226 % of control
Cc1cnc(O[Si](C)(C)C)nc1O[Si](C)(C)C,T/C,[4],100 % of control
same,T/C,[6],91 % of control
same,T/C,[7],116 % of control
C1=C(c2ccccc2)[P+](c2ccccc2)(c2ccccc2)C=C(c2ccccc2)[P+]1(c1ccccc1)c1ccccc1,T/C,"dose: 11.0 mg/kg/injection, schedule: Q04DX003 (ip), vehicle: saline",115 % of control
same,T/C,[8],123 % of control
same,T/C,"dose: 17.0 mg/kg/injection, schedule: Q04DX003 (ip), vehicle: saline",123 % of control
same,T/C,"dose: 37.0 mg/kg/injection, schedule: Q04DX003 (ip), vehicle: saline",100 % of control
same,T/C,[2],119 % of control
CC1=CC(C(O)C(C)C)C(C)(Cc2ccc(C)cn2)NC1c1ccccc1 (stereo unspecified),T/C,"dose: 6.25 mg/kg/injection, schedule: Q04DX003 (ip), vehicle: saline with Tween-80",102 % of control
same,T/C,"dose: 12.5 mg/kg/injection, schedule: Q04DX003 (ip), vehicle: saline with Tween-80",102 % of control
same,T/C,"dose: 25.0 mg/kg/injection, schedule: Q04DX003 (ip), vehicle: saline with Tween-80",109 % of control
N#Cc1cccc(CC(O)(c2ccccc2)c2cccc3ccccc23)c1 (stereo unspecified),T/C,[3],103 % of control
same,T/C,[4],97 % of control
same,T/C,[6],99 % of control
CSc1cc(C)c(O)c(C)c1,T/C,[9],104 % of control
same,T/C,[10],104 % of control
same,T/C,[11],104 % of control
SCc1ccccn1,T/C,"dose: 62.5 mg/kg/injection, schedule: Q01DX010 (ip), vehicle: carboxymethylcellulose (CMC)",110 % of control
same,T/C,"dose: 125.0 mg/kg/injection, schedule: Q01DX010 (ip), vehicle: carboxymethylcellulose (CMC)",110 % of control
same,T/C,"dose: 250.0 mg/kg/injection, schedule: Q01DX010 (ip), vehicle: carboxymethylcellulose (CMC)",120 % of control
CC(C)(S(=O)(=O)Oc1ccccc1)S(=O)(=O)Oc1ccccc1,T/C,"dose: 100.0 mg/kg/injection, schedule: Q04DX003 (ip), vehicle: saline with Tween-80",93 % of control
same,T/C,[5],87 % of control
same,T/C,"dose: 400.0 mg/kg/injection, schedule: Q04DX003 (ip), vehicle: saline with Tween-80",92 % of control
ClC1C(Cl)C2CC1C1OC21 (stereo unspecified),T/C,[9],101 % of control
same,T/C,[10],100 % of control
same,T/C,[11],100 % of control
C/C=C(/C)C(=O)O[C@H]1CCN2CC=C(COC(=O)[C@@](O)([C@H](C)OC)C(C)(C)O)[C@H]12,T/C,"dose: 12.5 mg/kg/injection, schedule: Q01DX010 (ip), vehicle: saline",95 % of control
same,T/C,"dose: 25.0 mg/kg/injection, schedule: Q01DX010 (ip), vehicle: saline",100 % of control
C[P+](c1ccc(Cl)cc1)(c1ccc(Cl)cc1)c1ccc(Cl)cc1,T/C,"dose: 6.25 mg/kg/injection, schedule: Q04DX003 (ip), vehicle: saline",100 % of control
same,T/C,[8],104 % of control
same,T/C,"dose: 25.0 mg/kg/injection, schedule: Q04DX003 (ip), vehicle: saline",109 % of control
O=C1CCCCc2ccc(O)cc21,T/C,[4],99 % of control
same,T/C,[6],89 % of control
same,T/C,[7],93 % of control
